Results: patent US20230331731A1, “CRYSTAL FORM OF PYRROLO HETEROCYCLIC DERIVATIVE AND PREPARATION METHOD THEREFOR” (Jiangsu Hengrui Pharmaceuticals Co., Ltd., priority 2020, published 2023)

Legend:
[1] = Influencing factor stability study; type: physicochemical; conditions: for Color and appearance / Crystal form / Main peak purity: open
[2] = Long-term/accelerated stability study; type: physicochemical
Method: 1. The hydrobromide in crystal form α was left to stand under 25° C., 60% RH conditions and 40° C., 75% RH conditions to investigate its stability.
4. The fumarate in crystal form II was subjected to 6-month long-term (25° C., 60% RH) and accelerated (40° C., 75% RH) stability studies.

In the case of Br.Cn1nccc1Nc1nccc(-c2cc3n(c2)C(=O)N([C@H](CO)c2cccc(Cl)c2)C3)n1 [Hydrobromide in crystal form α], the Color and appearance ([1]; 40° C., 7 days) is reported as “Off-white solid”, the Crystal form ([1]; 40° C., 7 days) is reported as “Did not change” and the Main peak purity ([1]; 40° C., 7 days) is reported as 99.42%. For the same compound, the Color and appearance ([1]; 40° C., 14 days) was “Off-white solid”, the Crystal form ([1]; 40° C., 14 days) was “Did not change” and the Main peak purity ([1]; 40° C., 14 days) was 99.32%. For the same compound, the Color and appearance ([1]; 40° C., 30 days) was “Off-white solid”, the Crystal form ([1]; 40° C., 30 days) was “Did not change” and the Main peak purity ([1]; 40° C., 30 days) was 99.28%. For the same compound, the Color and appearance ([1]; 60° C., 7 days) was “Off-white solid”, the Crystal form ([1]; 60° C., 7 days) was “Did not change” and the Main peak purity ([1]; 60° C., 7 days) was 99.38%. The Color and appearance ([1]; 60° C., 14 days) was “Off-white solid”, the Crystal form ([1]; 60° C., 14 days) was “Did not change” and the Main peak purity ([1]; 60° C., 14 days) was 98.99%. For the same compound, the Color and appearance ([1]; 60° C., 30 days) was “Off-white solid”, the Crystal form ([1]; 60° C., 30 days) was “Did not change” and the Main peak purity ([1]; 60° C., 30 days) was 99.02%. The Color and appearance ([1]; 75% RH, 7 days) was “Off-white solid”, the Crystal form ([1]; 75% RH, 7 days) was “Did not change” and the Main peak purity ([1]; 75% RH, 7 days) was 99.41%. The Color and appearance ([1]; 75% RH, 14 days) was “Off-white solid”, the Crystal form ([1]; 75% RH, 14 days) was “Did not change” and the Main peak purity ([1]; 75% RH, 14 days) was 99.30%. The Color and appearance ([1]; 75% RH, 30 days) was “Off-white solid”, the Crystal form ([1]; 75% RH, 30 days) was “Did not change” and the Main peak purity ([1]; 75% RH, 30 days) was 99.31%. The Color and appearance ([1]; 92.5% RH, 7 days) was “Off-white solid”, the Crystal form ([1]; 92.5% RH, 7 days) was “Did not change” and the Main peak purity ([1]; 92.5% RH, 7 days) was 99.39%. For the same compound, the Color and appearance ([1]; 92.5% RH, 14 days) was “Off-white solid”, the Crystal form ([1]; 92.5% RH, 14 days) was “Did not change” and the Main peak purity ([1]; 92.5% RH, 14 days) was 99.42%. For the same compound, the Color and appearance ([1]; 92.5% RH, 30 days) was “Off-white solid”, the Crystal form ([1]; 92.5% RH, 30 days) was “Did not change” and the Main peak purity ([1]; 92.5% RH, 30 days) was 99.28%. For the same compound, the Color and appearance ([1]; 4500 Lux, 7 days) was “Off-white solid”, the Crystal form ([1]; 4500 Lux, 7 days) was “Did not change” and the Main peak purity ([1]; 4500 Lux, 7 days) was 99.09%. The Color and appearance ([1]; 4500 Lux, 14 days) was “Off-white solid”, the Crystal form ([1]; 4500 Lux, 14 days) was “Did not change” and the Main peak purity ([1]; 4500 Lux, 14 days) was 98.94%. The Color and appearance ([1]; 4500 Lux, 30 days) was “Off-white solid”, the Crystal form ([1]; 4500 Lux, 30 days) was “Did not change” and the Main peak purity ([1]; 4500 Lux, 30 days) was 98.50%. The “physical and chemical stability (conclusion)” value ([1]; high-temperature conditions (40° C. and 60° C.) and high-humidity conditions (75% and 92.5%), 30 days) was “relatively good physical and chemical stability”, the Crystal form ([2]; 25° C., 60%RH, 1 month) was “α” and the “Purity, 1 month” value ([2]; 25° C., 60%RH, 1 month) was 99.33%. The Crystal form ([2]; 40° C., 75%RH, 1 month) was “α”, the “Purity, 1 month” value ([2]; 40° C., 75%RH, 1 month) was 99.24% and the “Purity, Initial” value ([2]; Initial) was 99.43%. The “physical and chemical stability (conclusion)” value ([2]; long-term and accelerated stability conditions, 1 month) was “good physical and chemical stability”.
